Data reported in patent publication US12162894B2, “Structural analog of Cyclotheonellazole A, and synthetic method therefor and application method thereof” (The Second People's Hospital of Shenzhen (Shenzhen …, priority 2022, dated 2024).

Target: T1, Neutrophil Elastase (NE) (Homo sapiens, UniProt P08246)
T1 construct: purchased Abcam ab118971
T1 sequence (P08246 30-267): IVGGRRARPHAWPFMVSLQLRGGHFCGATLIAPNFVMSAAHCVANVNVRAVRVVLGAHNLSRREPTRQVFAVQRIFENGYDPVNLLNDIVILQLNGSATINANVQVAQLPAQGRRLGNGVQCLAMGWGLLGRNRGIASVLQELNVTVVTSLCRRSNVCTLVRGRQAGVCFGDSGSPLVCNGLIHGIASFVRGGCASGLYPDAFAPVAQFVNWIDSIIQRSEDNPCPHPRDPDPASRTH
Experiment: Inhibition of neutrophil elastase (NE), fluorescence kit (Abcam ab118971)
Format: biochemical
Conditions: 5 min pre-incubation at 37° C.; Ex/Em=400/505 nm; slope of fluorescence; read-out: IC50, enzyme activity of the NE
Procedure: An Inhabitation Effect of the TM to Neutrophil Elastase (NE)
• 1. Experimental materials include a NE protease detection kit (ab118971) of an Abcam company and TM. • 2. Experimental methods are as follows. In a black 96-well plate, a blank well group, a negative control well group and a sample well group are set, and a reaction system is 100 μL. The blank well group is added with 75 μL of buffer, the negative control well group is added with 50 μL of NE protease and 25 μL of buffer, the sample well group is added with 50 μL of NE protease and 25 μL of TM solution (respectively with concentrations of 0.00001 μM, 0.0001 μM, 0.001 μM, 0.003 μM, 0.01 μM 0.1 μM, 1 μM, and 10 μM), and the three groups are incubated at a temperature of 37° C. for 5 min. Each well is added with 25 μL of substrate, after mixing evenly, fluorescence value of each well is immediately detected at Ex/Em=400/505 nm, and is detected every 20 seconds, and a dynamic process within a range of 0-40 min is observed. Two different time points (T1 and T2) are selected within a linear range of the dynamic process to obtain fluorescence values (RFUT1 and RFUT2) corresponding to the time points, a slope of the fluorescence values is calculated, and the slope can be regarded as an enzyme activity of each well. […] A half inhibitory concentration (IC50) is calculated through the Origin 2021 software. • 3.

CCC[C@@H]1NC(=O)[C@@H](NC=O)CNC(=O)[C@H](CS(=O)(=O)O)NC(=O)/C=C/c2csc(n2)[C@H](Cc2ccc(O)cc2)NC(=O)C(=O)[C@H]([C@@H](C)CC)NC1=O [TM]
IC50: 1.27 nM
